Laboratory results as given in US20210403485A1, “PYRAZOLOPYRIMIDINE DERIVATIVE AS SELECTIVE TRK INHIBITOR” (SHANDONG LUYE PHARMACEUTICAL CO., LTD., priority 2018, published 2021).
Like-named read-outs stand apart in the source and are kept apart here.

Tests used:
ALK = molecular target: T1, ALK (Homo sapiens, UniProt Q9UM73); experiment: Kinase inhibitory activity (33P-ATP, filtration-binding method, Reaction Biology Corp.); format: biochemical
T1 construct: purchased Reaction Biology Corp
Experimental: (§1) The mixture was incubated at room temperature for 20 minutes, added with ^33P-ATP at a certain concentration to start the reaction, and then incubated at room temperature for 120 minutes. Finally, the radioactivity of the reactant was detected by the filtration-binding method. The final kinase activity was expressed as the ratio of the remaining kinase activity in the test sample to the kinase activity of the DMSO control. The dose-response curves were fitted and IC50 values were calculated by GraphPad software.

[1] = Pharmacokinetic test of compounds in mice (plasma, LC/MS/MS); format: in vivo, male CD-1 mice; conditions: for Vd / AUC(0-t) / half-life / bioavailability / Cmax / Tmax: male, CD-1, mouse, plasma; for Vd: read-out: Apparent volume of distribution Vd; for AUC(0-t): read-out: Area under the curve AUC0-last; for half-life: read-out: Half-life T1/2 (converted); for bioavailability: read-out: Bioavailability F %; for Cmax: read-out: Peak concentration Cmax; for Tmax: read-out: Time to peak Tmax
Experimental: Experimental purpose: male CD-1 mice aged 7-9 weeks were selected as test animals, and the drug concentrations of the compounds in plasma at different time points after single intravenous injection (IV) and intragastric administration (PO) of the compounds were measured by an LC/MS/MS method, so that the pharmacokinetic behavior of the compounds disclosed herein in mice was studied, and the pharmacokinetic characteristic of the compounds was evaluated.
(§2) Drug preparation: the compounds were all prepared into clear solution by taking 5% DMSO+10% solutol+85% water as vehicle, and were used for administration in IV and PO groups. The dose of each compound administered was: IV, 3 mg/kg; PO, 10 mg/kg.

[2] = Pharmacokinetic test of compounds in rats (plasma, LC/MS/MS); format: in vivo, male SD rats; conditions: for Vd: read-out: Apparent volume of distribution Vd; for AUC(0-t): read-out: Area under the curve AUC0-last; for half-life: read-out: Half-life T1/2 (converted); for bioavailability: read-out: Bioavailability F %; for Cmax: read-out: Peak concentration Cmax
Experimental: Experimental purpose: male SD rats aged 7-9 weeks were selected as test animals, and the drug concentrations of the compounds in plasma at different time points after single intravenous injection (IV) and intragastric administration (PO) of the compounds were measured by an LC/MS/MS method, so that the pharmacokinetic behavior of the compounds disclosed herein in rats was studied, and the pharmacokinetic characteristic of the compounds was evaluated.
as §2

[3] = Animal body weight and general observations, Ba/F3 ETV6-NTRK3 tumor-bearing nude mice
Experimental: The mice in groups were intragastrically administrated on the next day, and the animal body weight and the long and short diameters of the tumor were measured once every other day.

Ba/F3 LMNA-NTRK1-F589L = molecular target: T2, Ba/F3 LMNA-NTRK1-F589L (Homo sapiens, UniProt P04629, F589L, cells depend on it); experiment: Inhibitory activity against cell proliferation (CellTiter-Glo, 72 hours); format: cell-based; conditions: read-out: Half maximal inhibitory concentration IC50 of cells, Ba/F3 LMNA-NTRK1-F589L
T2 construct: fused on or other part: N-terminal part of LMNA as fusion partner (part of the key); P02545 (Prelamin-A/C)
Summary of the method: (§3)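 Log-phase Ba/F3 cells (trypan blue viability above 90%) were treated in triplicate with a 9-point, 3-fold compound series. ATP-dependent luminescence was read after CellTiter-Glo addition, and IC50 values came from nonlinear sigmoidal dose-response fits.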

Ba/F3 LMNA-NTRK1-WT = molecular target: T3, Ba/F3 LMNA-NTRK1-WT (Homo sapiens, UniProt P04629); experiment: as above; format: cell-based; conditions: read-out: Half maximal inhibitory concentration IC50 of cells, Ba/F3 LMNA-NTRK1-WT
T3 construct: fused on or other part: N-terminal part of LMNA as fusion partner (part of the key); P02545 (Prelamin-A/C)
Summary of the method: as §3

BaF3 ETV6-NTRK3-WT = molecular target: T4, BaF3 ETV6-NTRK3-WT (Homo sapiens, UniProt Q16288); experiment: as above; format: cell-based; conditions: read-out: Half maximal inhibitory concentration IC50 of cells, BaF3 ETV6-NTRK3-WT
T4 construct: fused on or other part: N-terminal part of ETV6 (TEL) as fusion partner (part of the key); P41212 (Transcription factor ETV6)
Summary of the method: as §3

BaF3 LMNA-NTRK1-G595R = molecular target: T5, BaF3 LMNA-NTRK1-G595R (Homo sapiens, UniProt P04629, G595R, cells depend on it); experiment: as above; format: cell-based; conditions: read-out: Half maximal inhibitory concentration IC50 of cells, BaF3 LMNA-NTRK1-G595R
T5 construct: fused on or other part: N-terminal part of LMNA as fusion partner (part of the key); P02545 (Prelamin-A/C)
Summary of the method: as §3

BaF3 LMNA-NTRK1-G667A = molecular target: T6, BaF3 LMNA-NTRK1-G667A (Homo sapiens, UniProt P04629, G667A, cells depend on it); experiment: as above; format: cell-based; conditions: read-out: Half maximal inhibitory concentration IC50 of cells, BaF3 LMNA-NTRK1-G667A
T6 construct: fused on or other part: N-terminal part of LMNA as fusion partner (part of the key); P02545 (Prelamin-A/C)
Summary of the method: as §3

TrkA = molecular target: T7, TrkA (Homo sapiens, UniProt P04629); experiment: Kinase inhibitory activity (33P-ATP, filtration-binding method, Reaction Biology Corp.); format: biochemical
T7 construct: purchased Reaction Biology Corp
Experimental: as §1

TrkA-G595R = molecular target: T8, TrkA-G595R (Homo sapiens, UniProt P04629, G595R); experiment: as above; format: biochemical
T8 construct: purchased Reaction Biology Corp
Experimental: as §1

TrkA-G667C = molecular target: T9, TrkA-G667C (Homo sapiens, UniProt P04629, G667C); experiment: as above; format: biochemical
T9 construct: purchased Reaction Biology Corp
Experimental: as §1

TrkC = molecular target: T10, TrkC (Homo sapiens, UniProt Q16288); experiment: as above; format: biochemical
T10 construct: purchased Reaction Biology Corp
Experimental: as §1

[4] = read-out: Half maximal inhibitory concentration IC50 for kinases, ALK
[5] = male, SD, rat, plasma, IV, 3 mg/kg
[6] = male, SD, rat, plasma, PO, 10 mg/kg

T1 sequence (Q9UM73 19-1620): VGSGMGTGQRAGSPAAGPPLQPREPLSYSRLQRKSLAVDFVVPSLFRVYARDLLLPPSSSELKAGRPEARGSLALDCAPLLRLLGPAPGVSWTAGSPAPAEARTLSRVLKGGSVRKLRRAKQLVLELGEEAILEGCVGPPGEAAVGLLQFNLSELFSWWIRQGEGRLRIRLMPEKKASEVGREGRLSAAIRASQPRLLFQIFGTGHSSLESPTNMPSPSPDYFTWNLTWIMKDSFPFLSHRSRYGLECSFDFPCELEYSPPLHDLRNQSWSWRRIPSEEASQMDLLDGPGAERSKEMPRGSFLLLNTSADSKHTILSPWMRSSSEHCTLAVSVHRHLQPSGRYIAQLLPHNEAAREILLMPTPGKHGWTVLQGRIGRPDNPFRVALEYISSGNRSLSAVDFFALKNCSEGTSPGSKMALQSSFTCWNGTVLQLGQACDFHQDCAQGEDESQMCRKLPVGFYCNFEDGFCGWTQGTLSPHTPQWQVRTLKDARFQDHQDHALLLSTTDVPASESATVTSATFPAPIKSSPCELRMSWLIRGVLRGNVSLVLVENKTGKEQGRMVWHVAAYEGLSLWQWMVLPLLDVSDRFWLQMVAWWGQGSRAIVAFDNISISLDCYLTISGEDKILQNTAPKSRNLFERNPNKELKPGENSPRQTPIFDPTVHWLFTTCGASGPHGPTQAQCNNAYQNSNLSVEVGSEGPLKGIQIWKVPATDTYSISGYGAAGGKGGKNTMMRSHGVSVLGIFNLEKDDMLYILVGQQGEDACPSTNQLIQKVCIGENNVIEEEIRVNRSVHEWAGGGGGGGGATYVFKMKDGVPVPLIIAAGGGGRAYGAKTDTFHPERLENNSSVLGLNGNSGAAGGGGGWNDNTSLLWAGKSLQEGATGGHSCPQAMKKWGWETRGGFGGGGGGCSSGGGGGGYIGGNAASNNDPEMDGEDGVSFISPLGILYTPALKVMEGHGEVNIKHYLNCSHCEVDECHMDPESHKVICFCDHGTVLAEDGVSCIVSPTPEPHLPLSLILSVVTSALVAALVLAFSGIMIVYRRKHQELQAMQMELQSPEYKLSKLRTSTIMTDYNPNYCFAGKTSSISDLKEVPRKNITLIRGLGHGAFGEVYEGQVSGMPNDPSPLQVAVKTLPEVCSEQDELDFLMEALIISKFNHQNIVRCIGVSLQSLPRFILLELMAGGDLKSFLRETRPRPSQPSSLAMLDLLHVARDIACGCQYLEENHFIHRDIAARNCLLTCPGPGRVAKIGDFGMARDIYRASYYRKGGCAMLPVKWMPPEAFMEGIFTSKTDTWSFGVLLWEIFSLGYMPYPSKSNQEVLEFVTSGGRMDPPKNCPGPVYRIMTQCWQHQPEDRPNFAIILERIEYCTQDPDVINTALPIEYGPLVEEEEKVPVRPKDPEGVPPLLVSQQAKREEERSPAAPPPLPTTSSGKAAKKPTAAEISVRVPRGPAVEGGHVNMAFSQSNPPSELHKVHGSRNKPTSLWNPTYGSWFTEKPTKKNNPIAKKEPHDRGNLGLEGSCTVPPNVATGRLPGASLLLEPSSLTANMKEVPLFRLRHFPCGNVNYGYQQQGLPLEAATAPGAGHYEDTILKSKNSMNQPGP
T5 sequence (P04629 whole entry G595R, the tested form may be a part): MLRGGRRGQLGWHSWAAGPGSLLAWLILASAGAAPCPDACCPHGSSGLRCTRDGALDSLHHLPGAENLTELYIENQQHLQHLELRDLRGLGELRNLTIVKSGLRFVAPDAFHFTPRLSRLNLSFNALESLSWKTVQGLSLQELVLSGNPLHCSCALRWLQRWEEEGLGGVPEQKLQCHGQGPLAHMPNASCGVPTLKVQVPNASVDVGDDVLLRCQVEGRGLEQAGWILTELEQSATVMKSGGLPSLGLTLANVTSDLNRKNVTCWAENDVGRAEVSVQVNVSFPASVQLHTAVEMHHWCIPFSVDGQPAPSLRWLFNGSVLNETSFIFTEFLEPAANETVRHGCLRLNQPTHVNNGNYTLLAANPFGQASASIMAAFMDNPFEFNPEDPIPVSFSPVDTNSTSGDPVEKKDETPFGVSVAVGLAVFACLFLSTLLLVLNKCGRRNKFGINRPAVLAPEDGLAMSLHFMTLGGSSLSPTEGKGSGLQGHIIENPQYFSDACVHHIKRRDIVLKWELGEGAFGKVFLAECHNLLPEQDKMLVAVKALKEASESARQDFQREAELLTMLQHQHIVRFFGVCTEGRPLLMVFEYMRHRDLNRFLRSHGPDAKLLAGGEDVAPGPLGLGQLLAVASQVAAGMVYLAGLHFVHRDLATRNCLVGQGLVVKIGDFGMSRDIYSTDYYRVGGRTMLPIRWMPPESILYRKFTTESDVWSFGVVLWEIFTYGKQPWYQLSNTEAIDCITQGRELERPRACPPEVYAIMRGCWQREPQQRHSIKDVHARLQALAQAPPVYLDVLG
T4 sequence (Q16288 whole entry, change not shown, the tested form may be a part): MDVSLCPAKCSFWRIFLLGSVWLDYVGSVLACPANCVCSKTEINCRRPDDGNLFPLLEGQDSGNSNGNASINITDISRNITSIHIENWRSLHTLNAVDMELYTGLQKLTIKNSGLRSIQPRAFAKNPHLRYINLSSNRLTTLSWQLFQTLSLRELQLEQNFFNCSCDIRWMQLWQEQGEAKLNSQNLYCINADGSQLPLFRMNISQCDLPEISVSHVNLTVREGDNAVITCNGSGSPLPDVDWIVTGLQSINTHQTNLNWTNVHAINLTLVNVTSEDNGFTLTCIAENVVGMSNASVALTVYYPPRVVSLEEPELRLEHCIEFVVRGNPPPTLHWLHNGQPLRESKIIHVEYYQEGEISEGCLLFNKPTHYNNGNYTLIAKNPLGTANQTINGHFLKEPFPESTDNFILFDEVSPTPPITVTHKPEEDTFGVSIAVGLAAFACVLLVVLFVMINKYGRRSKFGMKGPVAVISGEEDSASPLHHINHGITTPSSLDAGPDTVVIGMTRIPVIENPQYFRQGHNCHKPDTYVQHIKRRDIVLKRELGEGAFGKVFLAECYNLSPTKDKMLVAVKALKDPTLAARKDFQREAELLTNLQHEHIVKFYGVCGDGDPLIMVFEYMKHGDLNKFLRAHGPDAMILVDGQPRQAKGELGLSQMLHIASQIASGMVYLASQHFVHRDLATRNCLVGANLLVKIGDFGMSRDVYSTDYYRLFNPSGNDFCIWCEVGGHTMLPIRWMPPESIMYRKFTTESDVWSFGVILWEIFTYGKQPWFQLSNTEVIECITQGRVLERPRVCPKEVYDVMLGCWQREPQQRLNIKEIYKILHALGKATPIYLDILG
T2 sequence (P04629 whole entry F589L, the tested form may be a part): as the sequence (P04629 whole entry G595R, the tested form may be a part) above, with F589L, R595G counted along it
T3 sequence (P04629 whole entry, change not shown, the tested form may be a part): as the sequence (P04629 whole entry G595R, the tested form may be a part) above, with R595G counted along it
T6 sequence (P04629 whole entry G667A, the tested form may be a part): as the sequence (P04629 whole entry G595R, the tested form may be a part) above, with R595G, G667A counted along it
T10 sequence (Q16288 32-839): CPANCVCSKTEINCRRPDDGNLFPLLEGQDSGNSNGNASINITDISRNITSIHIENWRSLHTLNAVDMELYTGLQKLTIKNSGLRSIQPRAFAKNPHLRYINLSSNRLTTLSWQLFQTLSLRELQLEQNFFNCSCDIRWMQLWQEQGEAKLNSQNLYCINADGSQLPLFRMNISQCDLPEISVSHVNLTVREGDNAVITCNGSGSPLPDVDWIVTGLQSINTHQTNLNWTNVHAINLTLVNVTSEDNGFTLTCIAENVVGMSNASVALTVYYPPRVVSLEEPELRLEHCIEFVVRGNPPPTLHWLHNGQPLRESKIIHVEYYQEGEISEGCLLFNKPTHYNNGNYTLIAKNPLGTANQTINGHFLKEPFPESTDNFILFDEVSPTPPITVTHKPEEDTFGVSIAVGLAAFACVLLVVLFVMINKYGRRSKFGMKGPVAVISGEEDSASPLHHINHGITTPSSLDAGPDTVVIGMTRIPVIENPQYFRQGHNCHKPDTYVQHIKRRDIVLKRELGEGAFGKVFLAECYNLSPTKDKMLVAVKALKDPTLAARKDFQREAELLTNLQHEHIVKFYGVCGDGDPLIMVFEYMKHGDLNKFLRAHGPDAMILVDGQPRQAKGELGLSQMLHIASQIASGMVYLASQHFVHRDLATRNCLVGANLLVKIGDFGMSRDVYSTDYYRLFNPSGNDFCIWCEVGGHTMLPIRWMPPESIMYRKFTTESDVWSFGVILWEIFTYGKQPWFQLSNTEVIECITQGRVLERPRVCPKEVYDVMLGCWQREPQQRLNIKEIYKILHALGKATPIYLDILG
T7 sequence (P04629 33-796): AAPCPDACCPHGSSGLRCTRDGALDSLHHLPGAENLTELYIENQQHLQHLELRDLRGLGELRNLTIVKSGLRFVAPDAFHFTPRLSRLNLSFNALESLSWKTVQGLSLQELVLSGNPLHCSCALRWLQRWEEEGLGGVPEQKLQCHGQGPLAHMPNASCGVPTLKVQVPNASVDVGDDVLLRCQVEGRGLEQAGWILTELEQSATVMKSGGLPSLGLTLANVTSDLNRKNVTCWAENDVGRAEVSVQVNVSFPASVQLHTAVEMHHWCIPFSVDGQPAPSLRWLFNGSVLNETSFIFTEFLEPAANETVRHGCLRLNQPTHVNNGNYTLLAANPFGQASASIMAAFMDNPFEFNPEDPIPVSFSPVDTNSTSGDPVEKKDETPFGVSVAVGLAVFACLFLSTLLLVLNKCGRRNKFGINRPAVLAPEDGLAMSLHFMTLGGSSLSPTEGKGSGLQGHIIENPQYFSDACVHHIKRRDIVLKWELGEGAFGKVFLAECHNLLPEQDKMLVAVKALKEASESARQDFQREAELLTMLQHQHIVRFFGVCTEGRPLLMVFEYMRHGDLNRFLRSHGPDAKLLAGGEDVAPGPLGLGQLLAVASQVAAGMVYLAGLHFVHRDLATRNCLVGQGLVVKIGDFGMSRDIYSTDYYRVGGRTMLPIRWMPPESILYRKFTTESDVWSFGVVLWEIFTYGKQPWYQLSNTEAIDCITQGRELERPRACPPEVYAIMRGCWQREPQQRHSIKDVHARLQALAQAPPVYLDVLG
T8 sequence (P04629 33-796 G595R): as the sequence (P04629 33-796) above, with G563R counted along it
T9 sequence (P04629 33-796 G667C): as the sequence (P04629 33-796) above, with G635C counted along it

## O=C(Nc1cnn2ccc(N3CCC[C@@H]3c3cc(F)ccc3F)nc12)N1CC[C@H](O)C1 [LOXO-101, larotrectinib, reference compound]
ALK; [4]
  IC50: > 1000 nM
[1]; IV, 3 mg/kg
  Apparent clearance Cl: 37.4 mL/min/kg
  Vd: 0.97 L/kg
  AUC(0-t): 3.12 µM·h
  half-life: 23.4 min
[1]; PO, 10 mg/kg
  AUC(0-t): 2.89 µM·h
  bioavailability: 28%
  Cmax: 1550 nM
  Tmax: 22.8 min
[2]; IV, 3 mg/kg
  Apparent clearance Cl: 45.6 mL/min/kg
[2]; [5]
  Vd: 1.7 L/kg
  AUC(0-t): 1.7 µM·h
  half-life: 36 min
[2]; [6]
  AUC(0-t): 1.93 µM·h
  bioavailability: 23%
  Cmax: 944 nM
[2]; male, SD, rat, plasma, PO, 10 mg/kg, read-out: Time to peak Tmax
  Tmax: 48 min
[3]; 60 mg/kg qd
  Rate of change in body weight (%) of day 11 to day 0: 4.4%
[3]; Day 0, 60 mg/kg qd
  Body weight: 23.8 ± 1.6 g
[3]; Day 3, 60 mg/kg qd
  Body weight: 22.9 ± 2.0 g
[3]; Day 5, 60 mg/kg qd
  Body weight: 23.6 ± 2.2 g
[3]; Day 7, 60 mg/kg qd
  Body weight: 23.9 ± 2.5 g
[3]; Day 9, 60 mg/kg qd
  Body weight: 24.2 ± 2.2 g
[3]; Day 11, 60 mg/kg qd
  Body weight: 24.7 ± 2.7 g

## C[C@@H]1CCc2ncc(F)cc2[C@H]2CCCN2c2ccn3ncc(c3n2)C(=O)N1 [LOXO-195, reference compound]
ALK; [4]
  IC50: 274 nM
Ba/F3 LMNA-NTRK1-F589L
  GI50: 44 nM
Ba/F3 LMNA-NTRK1-WT
  GI50: 4.9 nM
BaF3 ETV6-NTRK3-WT
  GI50: 2.6 nM
BaF3 LMNA-NTRK1-G595R
  GI50: 6.8 nM
BaF3 LMNA-NTRK1-G667A
  GI50: 24.4 nM
[1]; IV, 3 mg/kg
  Apparent clearance Cl: 11.8 mL/min/kg
  Vd: 0.5 L/kg
  AUC(0-t): 11.1 µM·h
  half-life: 71.4 min
[1]; PO, 10 mg/kg
  Bioavailability F %: 74%
  AUC(0-t): 27.3 µM·h
  Cmax: 12700 nM
  Tmax: 22.8 min
[3]; 100 mg/kg bid
  Rate of change in body weight (%) of day 11 to day 0: 4.9%
[3]; Day 0, 100 mg/kg bid
  Body weight: 22.7 ± 2.7 g
[3]; Day 3, 100 mg/kg bid
  Body weight: 24.4 ± 2.7 g
[3]; Day 5, 100 mg/kg bid
  Body weight: 24.9 ± 2.6 g
[3]; Day 7, 100 mg/kg bid
  Body weight: 25.1 ± 2.8 g
[3]; Day 9, 100 mg/kg bid
  Body weight: 25.4 ± 3.0 g
[3]; Day 11, 100 mg/kg bid
  Body weight: 25.2 ± 3.0 g

## O=C1NC2(CC2)COc2ncc(F)cc2C2COCCN2c2ccn3ncc1c3n2 (single isomer, unassigned) [WX001B]
ALK
  IC50: 182 nM
TrkA
  IC50: 2.4 nM
TrkA-G595R
  IC50: 3.5 nM
TrkA-G667C
  IC50: 2.3 nM
TrkC
  IC50: 0.2 nM
Ba/F3 LMNA-NTRK1-F589L
  GI50: 7.7 nM
Ba/F3 LMNA-NTRK1-WT
  GI50: 0.6 nM
BaF3 ETV6-NTRK3-WT
  GI50: 2.6 nM
BaF3 LMNA-NTRK1-G595R
  GI50: 2.7 nM
BaF3 LMNA-NTRK1-G667A
  GI50: 0.8 nM
[1]; IV, 3 mg/kg
  Apparent clearance Cl: 7.33 mL/min/kg
  Vd: 0.77 L/kg
  AUC(0-t): 16.6 µM·h
  half-life: 94.8 min
[1]; PO, 10 mg/kg
  AUC(0-t): 49.1 µM·h
  bioavailability: 89%
  Cmax: 12200 nM
[2]; IV, 3 mg/kg
  Apparent clearance Cl: 19.7 mL/min/kg
[2]; [5]
  Vd: 1.9 L/kg
  AUC(0-t): 6.24 µM·h
  half-life: 72 min
[2]; [6]
  AUC(0-t): 8.07 µM·h
  bioavailability: 39%
  Cmax: 1800 nM
[3]; 2.5 mg/kg bid
  Rate of change in body weight (%) of day 11 to day 0: 4.9%
[3]; 5 mg/kg bid
  Rate of change in body weight (%) of day 11 to day 0: 5.0%
[3]; 10 mg/kg bid
  Rate of change in body weight (%) of day 11 to day 0: 4.8%
[3]; 20 mg/kg bid
  Rate of change in body weight (%) of day 11 to day 0: 5.1%
[3]; Day 0, 2.5 mg/kg bid
  Body weight: 22.9 ± 1.6 g
[3]; Day 0, 5 mg/kg bid
  Body weight: 23.5 ± 1.6 g
[3]; Day 0, 10 mg/kg bid
  Body weight: 23.3 ± 0.9 g
[3]; Day 0, 20 mg/kg bid
  Body weight: 23.2 ± 1.9 g
[3]; Day 3, 2.5 mg/kg bid
  Body weight: 24.2 ± 2.0 g
[3]; Day 3, 5 mg/kg bid
  Body weight: 25.5 ± 1.8 g
[3]; Day 3, 10 mg/kg bid
  Body weight: 24.9 ± 0.7 g
[3]; Day 3, 20 mg/kg bid
  Body weight: 25.1 ± 2.5 g
[3]; Day 5, 2.5 mg/kg bid
  Body weight: 24.8 ± 1.8 g
[3]; Day 5, 5 mg/kg bid
  Body weight: 26.4 ± 1.6 g
[3]; Day 5, 10 mg/kg bid
  Body weight: 25.8 ± 0.7 g
[3]; Day 5, 20 mg/kg bid
  Body weight: 26.2 ± 2.8 g
[3]; Day 7, 2.5 mg/kg bid
  Body weight: 25.4 ± 2.0 g
[3]; Day 7, 5 mg/kg bid
  Body weight: 27.5 ± 1.7 g
[3]; Day 7, 10 mg/kg bid
  Body weight: 26.3 ± 1.1 g
[3]; Day 7, 20 mg/kg bid
  Body weight: 27.2 ± 2.7 g
[3]; Day 9, 2.5 mg/kg bid
  Body weight: 25.5 ± 1.8 g
[3]; Day 9, 5 mg/kg bid
  Body weight: 27.5 ± 2.3 g
[3]; Day 9, 10 mg/kg bid
  Body weight: 26.4 ± 1.1 g
[3]; Day 9, 20 mg/kg bid
  Body weight: 27.7 ± 2.9 g
[3]; Day 11, 2.5 mg/kg bid
  Body weight: 25.7 ± 1.9 g
[3]; Day 11, 5 mg/kg bid
  Body weight: 27.8 ± 2.2 g
[3]; Day 11, 10 mg/kg bid
  Body weight: 26.4 ± 1.4 g
[3]; Day 11, 20 mg/kg bid
  Body weight: 27.6 ± 3.5 g
[3]; all animals in all dose groups
  General observations: survival: survived until the end of administration
[3]; all dose groups, 2.5-20 mg/kg bid
  Tolerance (body weight course): good tolerance
